Laboratory results reported in US6881729B2, “Bile compound and method of controlling behavior of lampreys therewith” (Board of Trustees of Michigan State University, priority 2001, dated 2005).

Legend:
[1] = long-term storage of natural compound in ethanol; assay type: physicochemical; conditions: 1 mg/mL in ethanol at −20° C. for over one year
Description: In Example 1, only a small supply of synthetic 3kPZS had been produced by enzymatic oxidation of the 3α-hydroxyl group of PZS. This restricted the number of comparisons that could be made between the natural and synthetic 3kPZS. This example completes these studies. This example confirms that both synthetic and natural 3kPZS have the same chromatographic properties and behave in the same way when treated with 3α-HSD and sulfatase. […] The reason for this has not been fully established. However, the natural compound that was used in this example had been stored at 1 mg/mL in ethanol at −20° C. for over one year, whereas the synthetic compound had been made up freshly. The possibility is that the sulfate group is unstable in long-term storage.

[2] = tested on: olfactory organs of adult females; experiment: electro-olfactography (EOG); assay type: in vivo, sea lamprey
Description: The response magnitude is expressed as the percentage of responses to 10^−5 M L-arginine, the standard odorant. Vertical bars, one standard deviation.

[3] = tested on: ovulated females; experiment: two-choice maze behavioral test (preference and searching); assay type: in vivo, sea lamprey, Petromyzon marinus
Description: Behavioral tests confirmed that the odor of spermiating males influences the distribution and locomotor activities of ripe females in a two-choice maize as follows. Animals were classified as spermiating males and ovulated females if milt and eggs, respectively, could be expressed by manual pressure, or otherwise as non-spermiating males and pre-ovulatory females, and used as either test subjects or odor donors in a flow through (0.07 m/s) maze (L 4.6 m×W 1.2 m) with plywood bottom, sides, and a partition in the middle which extended 2.4 m from the upstream end, and with plastic meshes blocking fish movement at both the upstream and downstream ends. Odor donors were held above the upstream mesh. Between 0700 and 1700 h, a single test subject was acclimated for 10 min in the maze, and its behavior video recorded for 20 min. Then, 5 lampreys (all of one sex and maturity) were introduced into the mesh chamber on a randomly chosen side, and behavior of test subjects recorded for another 20 min. When washings were used, a spermiating male was held in 10 L of water for four hours and the water introduced into the odor chamber at 75 mL/min. Naïve observers scored videotapes for the total time spent in each side before (Be and Bc) and after (Ae and Ac) odorant introduction. The scores were used to calculate an index of preference: I=(Ae/(Ae+Be))−(Ac/(Ac+Bc)). A similar index was computed for searching behaviors which involved pacing back and forth across the upstream barrier, increased swimming speed, and rapid beating of the tail.
When tested in a two-choice maze, ovulated females (but not males or pre-ovulatory females) spent more time in the compartment scented with washings from spermiating males (Table 1). There was no preference of ovulated females for washings of pre-spermiating males or females.
From this we estimated that in the two-choice maze experiments with live males, the pheromone reached a concentration between 0.1 and 0.2 ηM. Therefore, the converted PS was tested in the two-choice maze at a final concentration of 0.17 ηM.

[4] = diethyl ether extraction from buffers of different pH; assay type: physicochemical; conditions: pH 4
Description: A trial was carried out in which a mixture of synthetic 3kPZS and 3kACA was dissolved in buffers of different pH and then extracted with diethyl ether. […] Based on this observation, an extract from 1 L of water that had been conditioned by a spermiating male was redissolved in 100 μL methanol and 900 μL of 0.05 M sodium acetate buffer, pH 4.0. This was extracted four times with 3 mL diethyl ether. The residue was then separated by HPLC as described above and the fractions assayed with the ELISA. Some of the extract which had not been treated with diethyl ether was treated in the same way. After these separations had been performed, standard synthetic 3kACA, 3kPZS and 3kPZ (200 μg each) were run on the column under identical conditions.

[5] = tested on: antibody against 3kPZS (polyclonal antiserum L286); experiment: ELISA cross-reactivity of the antiserum; assay type: binding, rabbit
Description: Plates were coated with polyclonal goat anti-rabbit IgG (Sigma; product code R2004) by adding 120 μL of antibody diluted in 0.05 M potassium phosphate buffer, pH 7.4 to each well and incubating overnight at 4° C. The plates were blocked by addition of 100 μL of 3% BSA in 0.1 M potassium phosphate buffered saline and storage at 4° C. for at least 12 h.
Non-specific binding (NSB) and maximum binding (B0) were measured in separate wells. Water washings, extracts, or HPLC fractions were diluted 20 times in assay buffer and 100 μL added to wells in duplicate; 50 μL of the diluted enzyme label (1:2000) was added to all wells and 50 μL of primary antibody (1:500,000) was added to all but NSB wells. Plates were incubated for 2 h at room temperature in a humid chamber. Then, after rinsing three times with wash buffer, 200 μL Ellmans reagent (4.3 mg DTNB, and 4 mg acetyl thiocholine in 20 mL 0.02 M potassium phosphate buffer) was added to each well. The plates were sealed and incubated overnight at room temperature in a humid chamber.
To test the cross-reactivity of the antibody to structurally related compounds, serial dilutions of ACA, PZ, PZS, CA, 3kACA, and 3kPZ were assayed alongside the 3kPZS standard.

[6] = ovulated females, final concentration of 0.17 ηM
[7] = ovulated females, flow-through maze, washings introduced at 75 mL/min, PP at final concentration of 0.17 ηM
[8] = ovulated females, searching behavior
[9] = weight for weight basis, compared with 3kPZS

SMILES: CC(CCCOS(=O)(=O)O)C1CCC2C3C(O)CC4CC(=O)CCC4(C)C3CC(O)C12C (stereo not drawn) [3kPZS, 7α,12α,24-trihydroxy-5α-cholan-3-one-24-sulfate]
- stability in storage [1]: appeared to have broken down to 3kPZ
- olfactory stimulation by EOG ([2]; adult females): highly stimulatory
- detection threshold ([2]; worked out from release rate and EOG detection of male washings after dilution of 10^6 times): about 10^−12 molar
- level at which it attracts ovulated females ([3]; in words): sub-nanomolar
- searching behavior in the scented side [3, 6]: increased searching behavior
- time spent in the scented side [3, 6]: spent a longer time
- No. animals that spent more time on side that was: Scented [3, 7]: 8
- No. animals that spent more time on side that was: Unscented [3, 7]: 0
- No. animals that spent more time searching on side that was: Scented [3, 8]: 6
- No. animals that spent more time searching on side that was: Unscented [3, 8]: 0
- extraction into the diethyl ether phase [4]: not

SMILES: C[C@H](CCCOS(=O)(=O)O)[C@H]1CC[C@H]2[C@@H]3[C@H](O)C[C@H]4C[C@H](O)CC[C@]4(C)[C@H]3C[C@H](O)[C@]12C [PZS, 3α,7α,12α,24-tetrahydroxy-5α-cholan-24-sulfate]
- cross-reaction with the antiserum ([5]; relative to 3kPZS standard): 1.6%

SMILES: C[C@H](CCC(=O)O)[C@H]1CC[C@H]2[C@@H]3[C@H](O)C[C@H]4CC(=O)CC[C@]4(C)[C@H]3C[C@H](O)[C@]12C [3kACA, 7α,12α-dihydroxy-5α-cholan-3-one-24-oic acid]
- cross-reaction with the antiserum ([5]; relative to 3kPZS standard): 100%
- cross-reaction with the antiserum [5, 9]: equally well
- extraction into the diethyl ether phase [4]: could be extracted into the diethyl ether phase

SMILES: C[C@H](CCCO)[C@H]1CC[C@H]2[C@@H]3[C@H](O)C[C@H]4CC(=O)CC[C@]4(C)[C@H]3C[C@H](O)[C@]12C [3kPZ, 7α,12α,24-trihydroxy-5α-cholan-3-one]
- cross-reaction with the antiserum ([5]; relative to 3kPZS standard): 100%
- cross-reaction with the antiserum [5, 9]: equally well
